Measured values as given in patent US20130178653A1, “NOVEL PRECURSOR OF RADIOLABELLED CHOLINE ANALOG COMPOUNDS” (IMPERIAL COLLEGE, priority 2010, published 2013).
Like-named read-outs stand apart in the source and are kept apart here. Each block holds one molecule with its values, some of them ahead of it.

What was measured:
HCT116 tumors = assay: Effect of PD0325901 treatment in HCT116 tumor bearing mice ([^18F]D4-FCH-PET, tumor size); type: in vivo
Description: Dynamic [^18F]FCH and [^18F]D4-FCH imaging scans were carried out on a dedicated small animal PET scanner, quad-HIDAC (Oxford Positron Systems). The features of this instrument have been described previously (Barthel, H., et al., Cancer Res 2003; 63(13):3791-8). For scanning the tail veins, vehicle- or drug-treated mice were cannulated after induction of anesthesia (isofluorane/O2/N2O). The animals were placed within a thermostatically controlled jig (calibrated to provide a rectal temperature of ˜37° C.) and positioned prone in the scanner. [^18F]FCH or [^18F]D4-FCH (2.96-3.7 MBq) was injected via the tail vein cannula and scanning commenced. Dynamic scans were acquired in list mode format over a 60 min period as reported previously (Leyton, J., et al., Cancer Research 2006; 66(15):7621-9). The acquired data were sorted into 0.5 mm sinogram bins and 19 time frames (0.5×0.5×0.5 mm voxels; 4×15, 4×60, and 11×300 s) for image reconstruction, which was done by filtered back-projection using a two-dimensional Hamming filter (cutoff 0.6). The image data sets were visualized using the Analyze software (version 6.0; Biomedical Imaging Resource, Mayo Clinic). Cumulative images of 30 to 60 min dynamic data were used for visualization of radiotracer uptake and to draw regions of interest. Regions of interest were defined manually on five adjacent tumor regions (each 0.5 mm thickness). Dynamic data from these slices were averaged for each tissue (liver, kidney, muscle, urine, and tumor) and at each of the 19 time points to obtain time versus radioactivity curves. Corresponding whole body time versus radioactivity curves representing injected radioactivity were obtained by adding together radioactivity in all 200×160×160 reconstructed voxels. Tumor radioactivity was normalized to whole-body radioactivity and expressed as percent injected dose per voxel (% ID/vox). The normalized uptake of radiotracer at 60 min (% ID/vox60) was used for subsequent comparisons. […] The area under the curve was calculated as the integral of % ID/vox from 0 to 60 min

HCT116 cells = assay: Effect of PD0325901 on [^18F]D4-FCH metabolism and CHKA expression in HCT116 cells in culture; type: cell-based, human
Description: HCT116 cells were grown in T150 flasks in triplicate until they were 70% confluent and then treated with vehicle (1% DMSO in growth medium) or 1 μmol/L PD0325901 in vehicle for 24 h. Cells were pulsed for 1 h with 1.1 MBq of either [^18F]D4-FCH or [^18F]FCH. The cells were washed three times in ice-cold phosphate buffered saline (PBS), scraped into 5 mL PBS, and centrifuged at 500×g for 3 min and then resuspended in 2 mL ice-cold methanol for HPLC analysis as described above for tissue samples. […] Briefly, HCT116 cells were grown in 100 mm dishes in triplicate and incubated with 5.0 MBq [^18F]FCH for 60 min at 37° C. to form the putative [^18F]FCH-phosphate. The cells were washed with 5 mL ice-cold PBS twice and then scraped and centrifuged at 750×g (4° C., 3 min) in 5 mL PBS. Cells were homogenized in 1 mL of 5 mmol/L Tris-HCl (pH 7.4) containing 50% (v/v) glycerol, 0.5 mmol/L MgCl2, and 0.5 mmol/L ZnCl2 and incubated with 10 units bacterial (type III) alkaline phosphatase (Sigma) at 37° C. in a shaking water bath for 30 min to dephosphorylate the [^18F]FCH-phosphate. The reaction was terminated by adding ice-cold methanol. Samples were processed as per plasma above and analyzed by radio-HPLC. Control experiments were done without alkaline phosphatase. […]

choline kinase A (CHKA) = assay: Choline kinase A expression in HCT116 tumors by western blotting; type: in vivo, mice; details: day 10, 25 mg/kg daily orally
Description: HCT116 tumors from mice that were injected with PD0325901 (25 mg/kg daily for 10 days, orally) or vehicle were analyzed for CHKA expression by western blotting. β-actin was used as the loading control. (b) Summary densitometer measurements for CHKA expression expressed as a ratio to β-actin. The results are the mean ratios±SE; n=3, * P=0.05.
Size-matched HCT116 tumor bearing mice were randomized to receive daily treatment by oral gavage of vehicle (0.5% hydroxypropyl methylcellulose+0.2% Tween 80) or 25 mg/kg (0.005 mL/g mouse) of the mitogenic extracellular kinase inhibitor, PD0325901, prepared in vehicle. [^18F]D4-FCH-PET scanning was done after 10 daily treatments with the last dose administered 1 h before scanning. […] The results are illustrated in FIGS. 18 and 19.
To understand further the mechanisms regulating [^18F]D4-FCH uptake with drug treatment, changes in CHKA expression in PD0325901 and vehicle-treated tumors excised after PET scanning were assessed.

[1] = system: HCT116 human colon xenografts; details: mouse, in vivo
Description: Time course biodistribution was carried out for [^18F]fluoromethylcholine, [^18F]fluoromethyl-[1-^2H2]choline and [^18F]fluoromethyl-[1,2-^2H4]choline in nude mice bearing HCT116 human colon xenografts.
Human colon (HCT116) tumors were grown in […] (Harlan, Bicester, United Kingdom) as previously reported (Leyton, J., et al., Cancer Research 2005; 65(10):4202-10). Tumor dimensions were measured continuously using a caliper and tumor volumes were calculated by the equation: volume=(π/6)×a×b×c, where a, b, and c represent three orthogonal axes of the tumor. Mice were used when their tumors reached approximately 100 mm^3. [^18F]Fluoromethylcholine, [^18F]fluoromethyl-[1-^2H2]choline and [^18F]fluoromethyl-[1,2-^2H4]choline (˜3.7 MBq) were each injected via the tail vein into awake untreated tumor bearing mice. The mice were sacrificed at pre-determined time points (2, 30 and 60 min) after radiotracer injection under terminal anesthesia to obtain blood, plasma, tumor, heart, lung, liver, kidney and muscle. Tissue radioactivity was determined on a gamma counter (Cobra II Auto-Gamma counter, Packard Biosciences Co, Pangbourne, UK) and decay corrected. Data were expressed as percent injected dose per gram of tissue.

[2] = mouse, in vivo; for form of radioactivity in tumors: iv
Description: Metabolite analysis of tissues including liver, kidney and tumor by HPLC was also accomplished. […] Choline and its metabolites lack any UV chromophore to permit presentation of chromatograms of the cold unlabelled compound simultaneously with the radioactivity chromatograms.
Liver, kidney, and tumor samples were obtained at 30 min. All samples were snap-frozen in liquid nitrogen. […] To ˜0.2 mL plasma was added ice-cold methanol (1.5 mL). The mixture was then centrifuged (3 min, 15,493×g, 4jC). […] Liver, kidney, and tumor samples were homogenized in ice-cold methanol (1.5 mL) using an IKA Ultra-Turrax T-25 homogenizer and subsequently treated as per plasma samples (above). All samples were analyzed by radio-HPLC on an Agilent 1100 series HPLC system (Agilent Technologies) equipped with a γ-RAM Model 3 γ-detector (IN/US Systems) and Laura 3 software (Lablogic). The stationary phase comprised a Waters μBondapak C18 reverse-phase column (300×7.8 mm) (Waters, Milford, Mass., USA). Samples were analyzed using a mobile phase comprising solvent A (acetonitrile/water/ethanol/acetic acid/1.0 mol/L ammonium acetate/0.1 mol/L sodium phosphate; 800/127/68/2/3/10) and solvent B (acetonitrile/water/ethanol/acetic acid/1.0 mol/L ammonium acetate/0.1 mol/L sodiumphosphate; 400/400/68/44/88/10) with a gradient of 0% B for 6 min, then 0>100% B in 10 min, 100% B for 0.5 min, 100>0% B in 1.5 min then 0% B for 2 min, delivered at a flow rate of 3 mL/min

[3] = system: human melanoma SKMEL-28 xenografts; details: mouse, in vivo
Description: (§1) Dynamic [^18F]FCH and [^18F]D4-FCH imaging scans were carried out on a dedicated small animal PET scanner, quad-HIDAC (Oxford Positron Systems). The features of this instrument have been described previously (Barthel, H., et al., Cancer Res 2003; 63(13):3791-8). For scanning the tail veins, vehicle- or drug-treated mice were cannulated after induction of anesthesia (isofluorane/O2/N2O). The animals were placed within a thermostatically controlled jig (calibrated to provide a rectal temperature of ˜37° C.) and positioned prone in the scanner. [^18F]FCH or [^18F]D4-FCH (2.96-3.7 MBq) was injected via the tail vein cannula and scanning commenced. Dynamic scans were acquired in list mode format over a 60 min period as reported previously (Leyton, J., et al., Cancer Research 2006; 66(15):7621-9). The acquired data were sorted into 0.5 mm sinogram bins and 19 time frames (0.5×0.5×0.5 mm voxels; 4×15, 4×60, and 11×300 s) for image reconstruction, which was done by filtered back-projection using a two-dimensional Hamming filter (cutoff 0.6). The image data sets were visualized using the Analyze software (version 6.0; Biomedical Imaging Resource, Mayo Clinic). Cumulative images of 30 to 60 min dynamic data were used for visualization of radiotracer uptake and to draw regions of interest. Regions of interest were defined manually on five adjacent tumor regions (each 0.5 mm thickness). Dynamic data from these slices were averaged for each tissue (liver, kidney, muscle, urine, and tumor) and at each of the 19 time points to obtain time versus radioactivity curves. Corresponding whole body time versus radioactivity curves representing injected radioactivity were obtained by adding together radioactivity in all 200×160×160 reconstructed voxels. Tumor radioactivity was normalized to whole-body radioactivity and expressed as percent injected dose per voxel (% ID/vox). The normalized uptake of radiotracer at 60 min (% ID/vox60) was used for subsequent comparisons. The average of the normalized maximum voxel intensity across five slices of tumor % IDvox60max was also use for comparison to account for tumor heterogeneity and existence of necrotic regions in tumor. The area under the curve was calculated as the integral of % ID/vox from 0 to 60 min

[4] = for parent compound still present after potassium permanganate treatment: 1 hour post-treatment, KMnO4, Na2CO3, H2O, rt, radio-HPLC
[5] = mouse, in vivo
choline oxidase [6] = assay: Enzymatic oxidation study using choline oxidase; details: 60 minute time point, room temperature, pH 7
[7] = mouse, in vivo, 60 min
Description: as §1

choline oxidase [8] = details: 60 min, 1.76 MBq/mL, pH 7
[9] = Oxidation potential in vivo (radio-HPLC of mouse plasma after i.v. injection); details: 15 min after i.v. injection into mice

Structure (SMILES): O=C(NOC[C@H](O)CO)c1ccc(F)c(F)c1Nc1ccc(I)cc1F [PD0325901]
[^18F]D4-FCH radiotracer retention in treated tumors (HCT116 tumors; 10 daily treatments 25 mg/kg, HCT116 tumors, PET): marked reduction in radiotracer retention
imaging variables (% ID/vox60, % ID/vox60max, AUC) of [^18F]D4-FCH (HCT116 tumors; after 10 days of drug treatment, HCT116 tumors): decreased
reduction in tumor size compared to the pretreatment group (HCT116 tumors; day 10, 25 mg/kg daily oral, HCT116 xenograft): 12.2%
[^18F]D4-FCH-phosphocholine formation (HCT116 cells; 1 μmol/L for 24 h, 60-min uptake of [^18F]D4-FCH): significantly inhibited
CHKA expression in vitro (HCT116 cells; exponentially growing cells): reduction of CHKA expression
CHKA protein expression in tumors (choline kinase A (CHKA)): significant reduction

Structure (SMILES): [2H]C([2H])(O)C([2H])([2H])[N+](C)(C)C[18F] [[^18F]D4-FCH, [^18F]fluoromethyl-[1,2-^2H4]choline]
tumor uptake at the later time points [1]: pronounced increase
kidney radioactivity in the form of betaine [2]: 20.6±6.2%
kidney radioactivity present as phosphocholine [2]: 60.6±3.7%
liver radioactivity present as phosphocholine [2]: high proportion
unknown metabolite (possibly the aldehyde intermediate) in liver [2]: 7.4±2.3%
unknown metabolite in kidney [2]: 8.8±0.2%
form of radioactivity in tumors [2]: mainly in the form of phosphocholine
%IDvox60max (average of maximum pixel % ID/vox60 across 5 slices) compared to [^18F]FCH [3]: significantly higher
tumor area under the time versus radioactivity curve (AUC) compared to FCH [3]: higher
proportion of parent compound remaining (radio-HPLC), relative to [^18F]fluoromethylcholine ([4]; 20 min): greater proportion of the parent compound remaining
parent compound still present after potassium permanganate treatment [4]: ~80%
percentage of parent compound in plasma compared to [^18F]FCH [5]: consistently higher
conversion of parent tracer to betaine metabolite in plasma ([5]; iv): 40%
parent radiotracer present (radio-HPLC distribution of choline species) (choline oxidase [6]): 29±4%

liver radioactivity present as phosphocholine [2]: high proportion
unknown metabolite (possibly the aldehyde intermediate) in liver [2]: not found
kidney radioactivity in the form of betaine ([2]; 30 min): 53.5±5.3%
kidney radioactivity present as phosphocholine ([2]; 30 min): 31.8±9.8%
unknown metabolite in kidney ([2]; 30 min): 3.3±0.6%
form of radioactivity in tumors ([2]; 30 min): significant levels of [^18F]FCH-betaine
bladder (urine) radioactivity, % ID/vox60 [7]: 6.70±0.71 % ID/vox
kidney radioactivity, % ID/vox60 [7]: 15.97±4.65 % ID/vox
liver radioactivity, % ID/vox60 [7]: 18.75±4.28 % ID/vox
tumor radiotracer uptake, % ID/vox60 ([3]; 60 min): 5.50±0.49 % ID/vox
parent compound still present after potassium permanganate treatment [4]: less than 40%
parent radiotracer present (radio-HPLC distribution of choline species) (choline oxidase [8]): 11±8%
conversion of parent tracer to betaine metabolite in plasma [9]: 80%
Structure (SMILES): C[N+](C)(C[18F])CCO [[^18F]FCH, [^18F]Fluoromethylcholine]
